Assays:
[1] = Pharmacokinetics in rat plasma after intragastric administration, normoxia (UPLC-MS/MS); format: in vivo, Sprague-Dawley rats; settings: mean ± SD; for clearance / Cmax / Tmax / half-life: n = 6; for Cmax / Tmax / half-life / AUC(0-t) / MRT last: male, Sprague-Dawley, rat, plasma, po; for AUC(0-t): n = 6, read-out: AUC(0→24 h) (converted); for MRT last: n = 6, read-out: MRT(0→24 h) (converted)
Protocol: (§1) Male Sprague-Dawley (SD) rats (250 g ± 20 g) were purchased from the Animal Center of Capital Medical University (ACCMU, Beijing, China). Animals were housed in individual cages with free access to food and water in a room with the illumination (a 12 h light and dark cycle), temperature and relative humidity controlled automatically. Within five days before experiments a jugular vein in each rat under anaesthesia was cannulated by insertion of an indwelling cannula for blood sampling. After fully recovery, the rats were housed with unlimited access to food and water except for fasting 12 h before the experiment with water available. The seven groups of PF/AF and TGP were intragastrically administered to the Sprague-Dawley rats, respectively. All the animal experiments were carried out in accordance with the Guide for the Care and Use of Laboratory Animals as adopted and promulgated by the National Health Ministry of China. The protocols of animal experiments had been approved by the Animal Center of Capital Medical University.
(§2) The UPLC-MS/MS system consisted of a UPLC system (Agilent Technologies, Palo Alto, CA, USA) including a G4220A 1290 binary pump, a G1379A vacuum degasser, a G4226 autosampler, a G1330B 1290 thermostat and triple quadrupole mass spectrometer equipped with an electrospray ionization (ESI) source (Series 6490, Agilent Technologies). The system was controlled with the Agilent Technologies Mass Hunter Workstation B.06.00 software for data acquisition and analysis. The analytes were separated on ZORBAX Eclipse plus C18 column (2.1 mm × 100 mm, 3.5 μm). The mobile phase consisted of 0.2% (v/v) formic acid in water (A) and methanol (B). The mobile phase conditions were 79:21 (A:B, v/v) and the flow rate was 0.4 mL/min. The column temperature was maintained at 30 °C. The sample injection volume was 5 μL. The detection was performed on the triple quadrupole mass spectrometer equipped with electrospray source (Series 6490, Agilent Technologies). High purity nitrogen served as both the nebulizing and sheath gas. The optimized parameters in the positive or negative were as follows: capillary voltage at 3 kV, nozzle voltage at 1.5 kV, gas temperature of 200 °C and sheath gas temperature of 250 °C. The quantification was performed by multiple reaction monitoring (MRM) via precursor-to-product ion pair. AF and IS were detected in positive ion mode while PF was detected in negative ion mode. The parameters were set as follows: m/z 525→449 for PF (fragmentor energy, 380 eV; collision energy, 10 eV; dwell time, 80 ms); m/z 481→105 for AF (fragmentor energy, 380 eV; collision energy, 28 eV; dwell time, 80 ms); m/z 417→297 for IS (fragmentor energy, 380 eV; collision energy, 25 eV; dwell time, 80 ms).
(§3) A 100 μL aliquot of plasma sample was added with 50 μL 1% (v/v) formic acid in water and 50 μL IS working solution (the IS, concentration of 100 ng/mL) and 300 μL acetonitrile. After vortexing for 2 min and centrifugation at 13,000× g for 10 min, the sample was transferred to another Axygen tube and evaporated to dryness in a rotary evaporator at 40 °C. The residue was reconstituted in 100 μL of water–methanol (79:21, v/v), then an aliquot of 5 μL was injected into the UPLC-MS/MS system for analysis.
(§4) The male Sprague-Dawley (SD) rats were randomly divided into seven groups (six rats in each group), which were housed with unlimited access to food and water, except for fasting 12 h before the experiment with water ad libitum. The hypoxic rats were exposed to a fractional concentration of 9.0% O2 after intragastric administration of drug for hypoxia pharmacokinetics experiments. The compound PF (80 mg/kg, normoxia and hypoxia), AF (14 mg/kg, normoxia and hypoxia), combination administration of PF (80 mg/kg) and AF (14 mg/kg), the two dosages of TPG (PF with 80 mg/kg, and AF with 14 mg/kg) were intragastrically administered to the rats, respectively. […]

[2] = Stability of the analytes in SD rat plasma (QC samples); format: in vitro ADME; settings: 24 h after pretreatment, three freeze (−80 °C)/thaw (room temperature) cycles, 30 days at −80 °C
Protocol: The stabilities of the analytes in the SD rat plasma were investigated using the QC sample solutions stored under different temperature conditions for different periods of time which likely to be encountered during sample storage and the analytical process. The QC samples were tested for post-treatment, three freeze-thaw cycles and long-term stabilities. The post-treatment was evaluated by placing the QC samples in the autosampler for 24 h. And for freeze-thaw cycle stability assessment, the QC samples were repeatedly freezed and thawed for three cycles at −80 °C to 20 °C. The long-term stability was carried out via placing the QC samples at −80 °C for at least 30 days.

[3] = Pharmacokinetics in rat plasma after intragastric administration, hypoxia (9.0% O2); format: in vivo, Sprague-Dawley rats; settings: mean ± SD; for clearance / Cmax / Tmax / half-life: n = 6; for Cmax / Tmax / half-life / AUC(0-t) / MRT last: male, Sprague-Dawley, po; for AUC(0-t): n = 6, read-out: AUC(0→24 h) (converted); for MRT last: n = 6, read-out: MRT(0→24 h) (converted)
Protocol: as §1, §2, §3, §4

[4] = 80 mg/kg, PF (80 mg/kg) combined with AF (14 mg/kg), intragastric
[5] = 80 mg/kg, PF alone, 80 mg/kg intragastric, normoxia
[6] = 80 mg/kg, PF in TPG (TPG dose with PF 80 mg/kg), intragastric
[7] = PF 80 mg/kg single intragastric
[8] = 14 mg/kg, AF (14 mg/kg) combined with PF (80 mg/kg), intragastric
[9] = 14 mg/kg, AF alone, 14 mg/kg intragastric, normoxia
[10] = 14 mg/kg, AF in TPG (TPG dose with AF 14 mg/kg), intragastric
[11] = AF 14 mg/kg single intragastric

`C[C@@]12C[C@@]3(O)O[C@@H](O1)[C@]1(COC(=O)c4ccccc4)[C@H]3C[C@@]12O[C@@H]1O[C@H](CO)[C@@H](O)[C@H](O)[C@H]1O` [PF, paeoniflorin] gave a clearance ([1]; PF (80 mg/kg) combined with AF (14 mg/kg), intragastric) of 1600 ± 400 mL/min/kg, a clearance ([1]; PF alone, 80 mg/kg intragastric, normoxia) of 2300 ± 400 mL/min/kg and a clearance ([1]; PF in TPG (TPG dose with PF 80 mg/kg), intragastric) of 1700 ± 600 mL/min/kg. For the same compound, the Cmax [1, 4] was 320 ± 121 ng/mL, the Tmax [1, 4] was 0.695 h and the half-life [1, 4] was 1.63 ± 0.665 h. For the same compound, the AUC(0-t) [1, 4] was 865 ng·h/mL, the MRT last [1, 4] was 3.33 h and the Cmax [1, 5] was 333 ± 63.6 ng/mL. The Tmax [1, 5] was 0.583 h, the half-life [1, 5] was 1.81 ± 0.63 h and the AUC(0-t) [1, 5] was 595 ng·h/mL. The MRT last [1, 5] was 1.83 h, the Cmax [1, 6] was 291 ± 141 ng/mL and the Tmax [1, 6] was 0.388 h. It also gave a half-life [1, 6] of 3.91 ± 1.6 h, an AUC(0-t) [1, 6] of 902 ng·h/mL and an MRT last [1, 6] of 4.81 h. The “stability in rat plasma” value [2] was “stable”, the clearance [3, 7] was 3050 ± 540 mL/min/kg and the Cmax [3, 7] was 177 ± 55.1 ng/mL. The Tmax [3, 7] was 0.847 h, the half-life [3, 7] was 1.86 ± 0.475 h and the AUC(0-t) [3, 7] was 443 ng·h/mL. For the same compound, the MRT last [3, 7] was 2.12 h.
`CC12CC(O)C3CC1(OC1OC(CO)C(O)C(O)C1O)C3(COC(=O)c1ccccc1)C(=O)O2` (centres unmarked) [AF, albiflorin] showed a clearance ([1]; AF (14 mg/kg) combined with PF (80 mg/kg), intragastric) of 1800 ± 600 mL/min/kg, a clearance ([1]; AF alone, 14 mg/kg intragastric, normoxia) of 1700 ± 500 mL/min/kg and a clearance ([1]; AF in TPG (TPG dose with AF 14 mg/kg), intragastric) of 1200 ± 400 mL/min/kg. It also gave a Cmax [1, 8] of 42.4 ± 18.7 ng/mL, a Tmax [1, 8] of 0.695 h and a half-life [1, 8] of 2.17 ± 0.978 h. It also gave an AUC(0-t) [1, 8] of 129 ng·h/mL, an MRT last [1, 8] of 2.97 h and a Cmax [1, 9] of 70.3 ± 19.1 ng/mL. For the same compound, the Tmax [1, 9] was 0.445 h, the half-life [1, 9] was 1.99 ± 0.495 h and the AUC(0-t) [1, 9] was 142 ng·h/mL. The MRT last [1, 9] was 2.25 h, the Cmax [1, 10] was 56.9 ± 12.9 ng/mL and the Tmax [1, 10] was 0.528 h. The half-life [1, 10] was 3.59 ± 1.53 h, the AUC(0-t) [1, 10] was 196 ng·h/mL and the MRT last [1, 10] was 3.76 h. The “stability in rat plasma” value [2] was “stable”, the clearance [3, 11] was 1600 ± 700 mL/min/kg and the Cmax [3, 11] was 49.1 ± 16.2 ng/mL. For the same compound, the Tmax [3, 11] was 0.583 h, the half-life [3, 11] was 2.19 ± 0.958 h and the AUC(0-t) [3, 11] was 138 ng·h/mL. For the same compound, the MRT last [3, 11] was 2.16 h.

— paper PMC6273400, “Enhancement of Exposure and Reduction of Elimination for Paeoniflorin or Albiflorin via Co-Administration with Total Peony Glucosides and Hypoxic Pharmacokinetics Comparison” (Molecules, 2016)
